Data reported in patent US8697691B2, “Alkyl 3-((2-amidoethyl)amino)-8-azabicyclo[3.2.1]octane-8-carboxylate analogs as selective M1 agonists and methods of making and using same” (Vanderbilt University, priority 2009, dated 2014).
pEC50: −log10 of the molar value.

Legend:
Assay type in all cases: cell-based
hM3 receptor = biological target: T1, hM3 receptor (Homo sapiens, UniProt P20309); experiment: Calcium mobilization assay, CHO cells stably expressing hM3
T1 construct: expressed in transfected cells; host or cells: CHO cells (Levey et al., 1991)
Source text: (§1) Chinese hamster ovary (CHO-K1) cells stably expressing rat (r)M1 were purchased from the American Type Culture Collection and cultured according to their indicated protocol. CHO cells stably expressing human (h)M2, hM3, and hM5 were described previously (Levey et al., 1991); hM1 and hM4 cDNAs were purchased from Missouri S&T cDNA Resource; rM4 cDNA was provided by T. I. Bonner (National Institutes of Health, Bethesda, Md.). hM1, hM4, and rM4 cDNAs were used to stably transfect CHO-K1 cells purchased from the American Type Culture Collection using Lipofectamine2000. […]
(§2) For low throughput measurement of agonist-evoked increases in intracellular calcium, CHO-K1 cells stably expressing muscarinic receptors were plated in 100 μL of growth medium at 5×10^4 (rM1, hM3, and hM5) or 6×10^4 cells per well (rM1 Y381A, hM2, and rM4) in Costar 96-well black-walled, tissue culture (TC)-treated, clear-bottom plates (Fisher). […] For calcium fluorescence measurements, CRCs of compounds (50 μl, 2×) were added 19 s after the beginning of data collection via a Flexstation II (Molecular Devices, Sunnyvale, Calif.). Fluorescence imaging continued for a total of 130 s acquisition time using an excitation wavelength of 488 nm, an emission wavelength of 525 nm, and a cutoff wavelength of 515 nm. […]

hM2 receptor = hM2 receptor (Homo sapiens, UniProt P08172); experiment: Calcium mobilization assay, CHO cells stably expressing hM2-Gqi5
Source text: as §1, §2

hM4 receptor = biological target: T2, hM4 receptor (Homo sapiens, UniProt P08173); experiment: Calcium mobilization assay, CHO-K1 cells stably expressing hM4-Gqi5
T2 construct: host or cells: CHO-K1, additionally stably transfected with Gqi5
T2 sequence (P08173 1-479): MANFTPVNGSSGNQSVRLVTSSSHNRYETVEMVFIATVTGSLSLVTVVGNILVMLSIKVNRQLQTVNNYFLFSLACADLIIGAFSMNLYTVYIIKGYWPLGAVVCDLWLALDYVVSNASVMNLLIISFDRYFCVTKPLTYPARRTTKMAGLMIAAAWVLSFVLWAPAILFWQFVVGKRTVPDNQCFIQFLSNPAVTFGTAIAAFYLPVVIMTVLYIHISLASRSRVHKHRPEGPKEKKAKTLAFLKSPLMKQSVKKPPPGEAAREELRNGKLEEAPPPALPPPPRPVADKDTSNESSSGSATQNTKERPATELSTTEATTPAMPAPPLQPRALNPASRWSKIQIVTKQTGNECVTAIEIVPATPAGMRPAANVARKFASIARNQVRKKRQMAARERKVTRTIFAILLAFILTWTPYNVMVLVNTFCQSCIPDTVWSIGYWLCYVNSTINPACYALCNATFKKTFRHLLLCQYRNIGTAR
Source text: as §1, §2

T1 sequence (P20309 whole entry): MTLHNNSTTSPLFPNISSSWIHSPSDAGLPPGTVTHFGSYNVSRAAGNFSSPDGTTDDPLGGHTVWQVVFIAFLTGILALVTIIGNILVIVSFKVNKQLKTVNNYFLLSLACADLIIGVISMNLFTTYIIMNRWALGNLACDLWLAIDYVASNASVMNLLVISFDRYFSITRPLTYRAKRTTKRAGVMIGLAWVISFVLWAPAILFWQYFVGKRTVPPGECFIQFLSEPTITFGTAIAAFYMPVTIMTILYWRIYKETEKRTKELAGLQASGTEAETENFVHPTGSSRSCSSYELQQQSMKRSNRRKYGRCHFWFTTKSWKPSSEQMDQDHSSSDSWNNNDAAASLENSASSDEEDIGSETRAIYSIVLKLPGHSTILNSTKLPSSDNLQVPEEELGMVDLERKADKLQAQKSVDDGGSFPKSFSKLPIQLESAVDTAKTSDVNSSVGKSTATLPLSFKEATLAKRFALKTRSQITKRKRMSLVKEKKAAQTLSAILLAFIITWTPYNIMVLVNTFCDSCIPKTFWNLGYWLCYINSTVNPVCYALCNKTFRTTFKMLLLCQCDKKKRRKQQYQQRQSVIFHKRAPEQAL
hM2 receptor, sequence (P08172 whole entry): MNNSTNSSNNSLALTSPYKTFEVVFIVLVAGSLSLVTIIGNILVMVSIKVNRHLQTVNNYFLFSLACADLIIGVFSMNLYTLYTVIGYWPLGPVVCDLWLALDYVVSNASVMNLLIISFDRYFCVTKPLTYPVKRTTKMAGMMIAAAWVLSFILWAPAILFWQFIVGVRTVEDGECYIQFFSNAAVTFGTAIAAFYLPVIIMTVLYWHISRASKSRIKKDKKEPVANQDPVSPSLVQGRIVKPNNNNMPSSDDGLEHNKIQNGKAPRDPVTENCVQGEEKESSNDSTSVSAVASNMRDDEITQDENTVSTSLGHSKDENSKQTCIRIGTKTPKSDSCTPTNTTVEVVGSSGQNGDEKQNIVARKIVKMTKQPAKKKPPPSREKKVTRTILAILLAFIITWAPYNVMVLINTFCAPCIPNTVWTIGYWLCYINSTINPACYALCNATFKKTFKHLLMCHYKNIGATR

Structure (SMILES)	pEC50 (hM3 receptor)	pEC50 (hM2 receptor)	pEC50 (hM4 receptor)
CCOC(=O)N1[C@@H]2CC[C@H]1C[C@H](NCCNC(=O)c1ccccc1)C2 [Example 26, ethyl 3-((3-exo)-(2-benzamidoethyl)amino)-8-azabicyclo[3.2.1]octane-8-carboxylate]	< 5.00	< 5.00	< 5.00
CCOC(=O)N1[C@@H]2CC[C@H]1C[C@@H](NCCNC(=O)c1ccccc1)C2 [Example 27, ethyl 3-((3-endo)-(2-benzamidoethyl)amino)-8-azabicyclo[3.2.1]octane-8-carboxylate]	~5.00	~5.52	~5.52
